The source of these data is US10047118B2, “C17-aryl substituted betulinic acid analogs” (priority 2014, dated 2018).

Some results are limits rather than exact numbers.

This test has as its system recombinant NL4-3 virus (Renilla luciferase in nef, Gag P373S; NLRluc) in MT-2 cells. The test can be described thus: HIV cell culture assay (luciferase reporter virus in MT-2 cells). The class given is cell-based. The settings on record: NL43, read-out: WT EC50. The method, then:
Step 2: To a solution of methyl 4-((1R,3aS,5aR,5bR,7aR,11aS,11bR,13aR,13bR)-5a,5b,8,8,11a-pentamethyl-3a-(1-methyl-1H-1,2,4-triazol-5-yl)-1-(prop-1-en-2-yl)-2,3,3a,4,5,5a,5b,6,7,7a,8,11,11a,11b,12,13,13a,13b-octadecahydro-1H-cyclopenta[a]chrysen-9-yl)benzoate (12.7 mg, 0.021 mmol) in THF (1 mL) and MeOH (0.25 mL) was added a solution of 1N lithium hydroxide (0.073 mL, 0.073 mmol). The reaction was stirred at 75° C. After 1 h, the reaction was cooled to rt and purified by reverse phase prep-HPLC using HPLC method 4 and dried in vacuo to give 4-((1R,3aS,5aR,5bR,7aR,11aS,11bR,13aR,13bR)-5a,5b,8,8,11a-pentamethyl-3a-(1-methyl-1H-1,2,4-triazol-5-yl)-1-(prop-1-en-2-yl)-2,3,3a,4,5,5a,5b,6,7,7a,8,11,11a,11b,12,13,13a,13b-octadecahydro-1H-cyclopenta[a]chrysen-9-yl)benzoic acid (9.1 mg, 0.015 mmol, 70.4% yield) as a white solid. LC/MS: m/e 596.3 (M+H)^+, 5.33 min (method 3). ^1H NMR (400 MHz, 1:1 CDCl3:METHANOL-d4) δ 7.89 (d, J=8.3 Hz, 2H), 7.78 (s, 1H), 7.17 (d, J=8.6 Hz, 2H), 5.30-5.22 (m, 1H), 4.77 (d, J=1.7 Hz, 1H), 3.93 (s, 3H), 3.23-3.05 (m, 2H), 2.33 (d, J=13.7 Hz, 1H), 2.11 (dd, J=17.2, 6.2 Hz, 1H), 2.04-1.96 (m, 1H), 1.93-1.80 (m, 2H), 1.72 (s, 3H), 1.68 (d, J=16.4 Hz, 1H), 1.63-1.58 (m, 1H), 1.55-1.30 (m, 10H), 1.28-1.19 (m, 2H), 1.18-1.08 (m, 2H), 1.04 (s, 3H), 0.97 (s, 3H), 0.90 (s, 6H), 0.82 (s, 3H). HIV cell culture assay—MT-2 cells and 293T cells were obtained from the NIH AIDS Research and Reference Reagent Program. MT-2 cells were propagated in RPMI 1640 media supplemented with 10% heat inactivated fetal bovine serum, […]. The 293T cells were propagated in DMEM media supplemented with 10% heat inactivated fetal bovine serum (FBS), 100 units/mL penicillin G and 100 μg/mL streptomycin. The proviral DNA clone of NL4-3 was obtained from the NIH AIDS Research and Reference Reagent Program. A recombinant NL4-3 virus, in which a section of the nef gene from NL4-3 was replaced with the Renilla luciferase gene, was used as a reference virus. In addition, residue Gag P373 was converted to P373S. Briefly, the recombinant virus was prepared by transfection of the altered proviral clone of NL4-3. Transfections were performed in 293T cells using LipofectAMINE PLUS from Invitrogen (Carlsbad, Calif.), according to manufacturer's instruction. The virus was titered in MT-2 cells using luciferase enzyme activity as a marker. Luciferase was quantitated using the Dual Luciferase kit from Promega (Madison, Wis.), with modifications to the manufacturer's protocol. The diluted Passive Lysis solution was pre-mixed with the re-suspended Luciferase Assay Reagent and the re-suspended Stop & Glo Substrate (2:1:1 ratio). Fifty (50) μL of the mixture was added to each aspirated well on assay plates and luciferase activity was measured immediately on a Wallac TriLux (Perkin-Elmer). Antiviral activities of inhibitors toward the recombinant virus were quantified by measuring luciferase activity in cells infected for 4-5 days with NLRluc recombinants in the presence serial dilutions of the inhibitor. Biological Data Key for EC50
Regarding `C=C(C)[C@@H]1CC[C@]2(c3nnco3)CC[C@]3(C)[C@H](CC[C@@H]4[C@@]5(C)CC=C(c6ccc(C(=O)O)cc6)C(C)(C)[C@@H]5CC[C@]43C)[C@@H]12` [Example 3, 4-((1R,3aS,5aR,5bR,7aR,11aS,11bR,13aR,13bR)-5a,5b,8,8,11a-pentamethyl-3a-(1,3,4-oxadiazol-2-yl)-1-(prop-1-en-2-yl)-2,3,3a,4,5,5a,5b,6,7,7a,8,11,11a,11b,12,13,13a,13b-octadecahydro-1H-cyclopenta[a]chrysen-9-yl)benzoic acid], the EC50 (commonly the concentration at which the effect is half-maximal) was under 100 nM. The value for `C=C(C)[C@@H]1CC[C@]2(c3nc[nH]n3)CC[C@]3(C)[C@H](CC[C@@H]4[C@@]5(C)CC=C(c6ccc(C(=O)O)cc6)C(C)(C)[C@@H]5CC[C@]43C)[C@@H]12` [Example 5, 4-((1R,3aS,5aR,5bR,7aR,11aS,11bR,13aR,13bR)-5a,5b,8,8,11a-pentamethyl-1-(prop-1-en-2-yl)-3a-(1H-1,2,4-triazol-3-yl)-2,3,3a,4,5,5a,5b,6,7,7a,8,11,11a,11b,12,13,13a,13b-octadecahydro-1H-cyclopenta[a]chrysen-9-yl)benzoic acid] was under 100 nM. As for `C=C(C)[C@@H]1CC[C@]2(c3ncnn3C)CC[C@]3(C)[C@H](CC[C@@H]4[C@@]5(C)CC=C(c6ccc(C(=O)O)cc6)C(C)(C)[C@@H]5CC[C@]43C)[C@@H]12` [Example 7, 4-((1R,3aS,5aR,5bR,7aR,11aS,11bR,13aR,13bR)-5a,5b,8,8,11a-pentamethyl-3a-(1-methyl-1H-1,2,4-triazol-5-yl)-1-(prop-1-en-2-yl)-2,3,3a,4,5,5a,5b,6,7,7a,8,11,11a,11b,12,13,13a,13b-octadecahydro-1H-cyclopenta[a]chrysen-9-yl)benzoic acid], the EC50 was under 100 nM. The value for `C=C(C)[C@@H]1CC[C@]2(C#Cc3ccccc3C(=O)O)CC[C@]3(C)[C@H](CC[C@@H]4[C@@]5(C)CC=C(c6ccc(C(=O)O)cc6)C(C)(C)[C@@H]5CC[C@]43C)[C@@H]12` [Example 1, 2-(((1R,3aS,5aR,5bR,7aR,11aS,11bR,13aR,13bR)-9-(4-carboxyphenyl)-5a,5b,8,8,11a-pentamethyl-1-(prop-1-en-2-yl)-2,3,3a,4,5,5a,5b,6,7,7a,8,11,11a,11b,12,13,13a,13b-octadecahydro-1H-cyclopenta[a]chrysen-3a-yl)ethynyl)benzoic acid] was 80 nM; that for `C=C(C)[C@@H]1CC[C@]2(c3nnc(CN(C)C)o3)CC[C@]3(C)[C@H](CC[C@@H]4[C@@]5(C)CC=C(c6ccc(C(=O)O)cc6)C(C)(C)[C@@H]5CC[C@]43C)[C@@H]12` [Example 4, 4-((1R,3aS,5aR,5bR,7aR,11aS,11bR,13 aR,13bR)-3a-(5-((dimethylamino)methyl)-1,3,4-oxadiazol-2-yl)-5a,5b,8,8,11a-pentamethyl-1-(prop-1-en-2-yl)-2,3,3a,4,5,5a,5b,6,7,7a,8,11,11a,11b,12,13,13a,13b-octadecahydro-1H-cyclopenta[a]chrysen-9-yl)benzoic acid] was under 100 nM. The value for `C=C(C)[C@@H]1CC[C@]2(c3ncn(CCN4CCS(=O)(=O)CC4)n3)CC[C@]3(C)[C@H](CC[C@@H]4[C@@]5(C)CC=C(c6ccc(C(=O)O)cc6)C(C)(C)[C@@H]5CC[C@]43C)[C@@H]12` [Example 6, 4-((1R,3aS,5aR,5bR,7aR,11aS,11bR,13aR,13bR)-3a-(1-(2-(1,1-dioxidothiomorpholino)ethyl)-1H-1,2,4-triazol-3-yl)-5a,5b,8,8,11a-pentamethyl-1-(prop-1-en-2-yl)-2,3,3a,4,5,5a,5b,6,7,7a,8,11,11a,11b,12,13,13a,13b-octadecahydro-1H-cyclopenta[a]chrysen-9-yl)benzoic acid] was under 100 nM; that for `C=C(C)[C@@H]1CC[C@]2(C#Cc3ccsc3-c3nnn[nH]3)CC[C@]3(C)[C@H](CC[C@@H]4[C@@]5(C)CC=C(c6ccc(C(=O)O)cc6)C(C)(C)[C@@H]5CC[C@]43C)[C@@H]12` [Example 2, 4-((1R,3aS,5aR,5bR,7aR,11aS,11bR,13 aR,13bR)-3a-((2-(1H-tetrazol-5-yl)thiophen-3-yl)ethynyl)-5a,5b,8,8,11a-pentamethyl-1-(prop-1-en-2-yl)-2,3,3a,4,5,5a,5b,6,7,7a,8,11,11a,11b,12,13,13a,13b-octadecahydro-1H-cyclopenta[a]chrysen-9-yl)benzoic acid] was over 100 nM.
